Laboratory results from patent US6410575B1, “Viral treatment” (The Procter & Gamble Company, priority 1999, dated 2002).
Where “and” joins values, the source holds several entries; their conditions need not be identical. Equal entries are not always repeated.

Columns and labels:
Format in all cases: cell-based
[1] = system: HIV-1 cell line, CEMRF; assay: Long term in vitro study, CEMRF; conditions: 7 μg/ml
Procedure: (§1) Toxicity quantification involves the XTT-based evaluation. Assays were designed to characterize the long term effects of the compounds on virus production and to characterize the longer term effects of the compounds on virus production from chronically HIV infected cells.
(§2) CEM-SS cells chronically infected with HIV isolate, for example SKI (CEM-SKI) are cultured in RPMI1640 tissue culture medium supplemented with 10% fetal bovine serum and antibiotics. […] CEM-SKI or other infected cells with no added drug are used as the control cells.
(§3) Cells are allowed to grow to a density of approximately 1×10^6 cells/ml and are then passaged at a 1:10 dilution. […] The drug concentration in the flask is then increased two-fold and the cells maintained as above.
(§4) The cell populations contain integrated copies of the HIV genome and constitutively produce HIV at relatively high levels or are latently infected and only produce virus after stimulation with phorbol esters, tumor necrosis factor or IL6(U1 and ACH2). Reductions in virus products were observed when quantifying supernatant reverse transcriptase activity.
The results with CEMRF cells was reported at weekly intervals.
The CEMRF is a viral strain of the CEMSS cell line.

[2] = system: HIV-1 cell line, CEMSKI; assay: Long term in vitro study, CEMSKI
Procedure: as §1, §2, §3, §4
The results with CEMSKI cells was reported at weekly intervals.
The CEMSKI cell like is a viral strain of the CEMSS cell line.

[3] = system: HEPG2 2.2.15; assay: Toxicity values in the hepatitis B test; design: Toxicity Values, sample / Toxicity Values, mean: unit not given here

NC(=S)Nc1nsc(-c2ccccc2)n1
virus production (supernatant reverse transcriptase activity) ([1]; day 4): 5423
virus production (supernatant reverse transcriptase activity) ([1]; day 11): 2249
virus production (supernatant reverse transcriptase activity) ([1]; day 18): 2951
virus production (supernatant reverse transcriptase activity) ([1]; day 25): 3606
virus production (supernatant reverse transcriptase activity) ([2]; 7 μg/ml, day 4): 6593
virus production (supernatant reverse transcriptase activity) ([2]; 7 μg/ml, day 11): 8676
virus production (supernatant reverse transcriptase activity) ([2]; 7 μg/ml, day 18): 10912
virus production (supernatant reverse transcriptase activity) ([2]; 7 μg/ml, day 25): 9356
virus production (supernatant reverse transcriptase activity) ([2]; 7 μg/ml, day 32): 8803
virus production (supernatant reverse transcriptase activity) ([2]; 7 μg/ml, day 39): 6655
virus production (supernatant reverse transcriptase activity) ([2]; 7 μg/ml, day 46): 8280
virus production (supernatant reverse transcriptase activity) ([2]; 7 μg/ml, day 53): 7549
virus production (supernatant reverse transcriptase activity) ([2]; 15 μg/ml, day 4): 6815
virus production (supernatant reverse transcriptase activity) ([2]; 15 μg/ml, day 11): 8202
virus production (supernatant reverse transcriptase activity) ([2]; 15 μg/ml, day 18): 10389
virus production (supernatant reverse transcriptase activity) ([2]; 15 μg/ml, day 25): 7816
virus production (supernatant reverse transcriptase activity) ([2]; 15 μg/ml, day 32): 6672
virus production (supernatant reverse transcriptase activity) ([2]; 15 μg/ml, day 39): 7087
virus production (supernatant reverse transcriptase activity) ([2]; 15 μg/ml, day 46): 6457
virus production (supernatant reverse transcriptase activity) ([2]; 15 μg/ml, day 53): 6544
virus production (supernatant reverse transcriptase activity) ([2]; 30 μg/ml, day 4): 6626
virus production (supernatant reverse transcriptase activity) ([2]; 30 μg/ml, day 11): 6582
virus production (supernatant reverse transcriptase activity) ([2]; 30 μg/ml, day 18): 7494
virus production (supernatant reverse transcriptase activity) ([2]; 30 μg/ml, day 25): 4421
virus production (supernatant reverse transcriptase activity) ([2]; 30 μg/ml, day 32): 4056
virus production (supernatant reverse transcriptase activity) ([2]; 30 μg/ml, day 39): 2118
virus production (supernatant reverse transcriptase activity) ([2]; 30 μg/ml, day 46): 4117
virus production (supernatant reverse transcriptase activity) ([2]; 30 μg/ml, day 53): 4779
virus production (supernatant reverse transcriptase activity) ([2]; repeated test, 7 μg/ml, day 4): 6224
virus production (supernatant reverse transcriptase activity) ([2]; repeated test, 7 μg/ml, day 11): 6658
virus production (supernatant reverse transcriptase activity) ([2]; repeated test, 7 μg/ml, day 18): 7207
virus production (supernatant reverse transcriptase activity) ([2]; repeated test, 7 μg/ml, day 25): 5725
virus production (supernatant reverse transcriptase activity) ([2]; repeated test, 7 μg/ml, day 32): 3161
virus production (supernatant reverse transcriptase activity) ([2]; repeated test, 7 μg/ml, day 39): 9602
virus production (supernatant reverse transcriptase activity) ([2]; repeated test, 7 μg/ml, day 46): 13984
virus production (supernatant reverse transcriptase activity) ([2]; repeated test, 7 μg/ml, day 53): 11578
virus production (supernatant reverse transcriptase activity) ([2]; repeated test, 15 μg/ml, day 4): 5685
virus production (supernatant reverse transcriptase activity) ([2]; repeated test, 15 μg/ml, day 11): 5733
virus production (supernatant reverse transcriptase activity) ([2]; repeated test, 15 μg/ml, day 18): 6236
virus production (supernatant reverse transcriptase activity) ([2]; repeated test, 15 μg/ml, day 25): 3752
virus production (supernatant reverse transcriptase activity) ([2]; repeated test, 15 μg/ml, day 32): 2451
virus production (supernatant reverse transcriptase activity) ([2]; repeated test, 15 μg/ml, day 39): 5526
virus production (supernatant reverse transcriptase activity) ([2]; repeated test, 15 μg/ml, day 46): 12397
virus production (supernatant reverse transcriptase activity) ([2]; repeated test, 15 μg/ml, day 53): 9662
virus production (supernatant reverse transcriptase activity) ([2]; repeated test, 30 μg/ml, day 4): 4789
virus production (supernatant reverse transcriptase activity) ([2]; repeated test, 30 μg/ml, day 11): 5200
virus production (supernatant reverse transcriptase activity) ([2]; repeated test, 30 μg/ml, day 18): 4821
virus production (supernatant reverse transcriptase activity) ([2]; repeated test, 30 μg/ml, day 25): 2418
virus production (supernatant reverse transcriptase activity) ([2]; repeated test, 30 μg/ml, day 32): 1651
virus production (supernatant reverse transcriptase activity) ([2]; repeated test, 30 μg/ml, day 39): 3386
virus production (supernatant reverse transcriptase activity) ([2]; repeated test, 30 μg/ml, day 46): 9353
virus production (supernatant reverse transcriptase activity) ([2]; repeated test, 30 μg/ml, day 53): 6466
% cell control ([3]; 0.64 μg/ml): 92.3%
Toxicity Values, mean ([3]; 0.64 μg/ml): 1.021
Toxicity Values, sample ([3]; 0.64 μg/ml): 0.985 and 0.999 and 1.079
% cell control ([3]; 2 μg/ml): 83.0%
Toxicity Values, mean ([3]; 2 μg/ml): 0.919
Toxicity Values, sample ([3]; 2 μg/ml): 0.881 and 0.959 and 0.916
% cell control ([3]; 6.4 μg/ml): 95.6%
Toxicity Values, mean ([3]; 6.4 μg/ml): 1.058
Toxicity Values, sample ([3]; 6.4 μg/ml): 0.940 and 1.218 and 1.015
% cell control ([3]; 20 μg/ml): 84.2%
Toxicity Values, mean ([3]; 20 μg/ml): 0.932
Toxicity Values, sample ([3]; 20 μg/ml): 0.966 and 0.921 and 0.909
% cell control ([3]; 64 μg/ml): 89.5%
Toxicity Values, mean ([3]; 64 μg/ml): 0.991
Toxicity Values, sample ([3]; 64 μg/ml): 0.962 and 1.037 and 0.973
% cell control ([3]; 200 μg/ml): 76.7%
Toxicity Values, mean ([3]; 200 μg/ml): 0.849
Toxicity Values, sample ([3]; 200 μg/ml): 0.818 and 0.928 and 0.800
TC50 ([3]; HEPG2 2.2.15): > 200 µg/mL
TC50 ([3]; HEPG2 2.2.15, replicate experiment): > 200 µg/mL
